Assay results from publication PMC13100289 (The Journal of Biological Chemistry, 2026).

Target: T1, Neutral endopeptidase (neprilysin) (Homo sapiens, UniProt P08473)
T1 construct: purchased; host or cells: CHO cells
Assay: Metalloprotease selectivity panel (Eurofins Panlabs): neprilysin
Type: biochemical
Conditions: assay validation, read-out: IC50 of reference inhibitor
Source text: Supplementary Table S1. […] Reference compounds were used to validate the assay for inhibition.

T1 sequence (P08473 whole entry): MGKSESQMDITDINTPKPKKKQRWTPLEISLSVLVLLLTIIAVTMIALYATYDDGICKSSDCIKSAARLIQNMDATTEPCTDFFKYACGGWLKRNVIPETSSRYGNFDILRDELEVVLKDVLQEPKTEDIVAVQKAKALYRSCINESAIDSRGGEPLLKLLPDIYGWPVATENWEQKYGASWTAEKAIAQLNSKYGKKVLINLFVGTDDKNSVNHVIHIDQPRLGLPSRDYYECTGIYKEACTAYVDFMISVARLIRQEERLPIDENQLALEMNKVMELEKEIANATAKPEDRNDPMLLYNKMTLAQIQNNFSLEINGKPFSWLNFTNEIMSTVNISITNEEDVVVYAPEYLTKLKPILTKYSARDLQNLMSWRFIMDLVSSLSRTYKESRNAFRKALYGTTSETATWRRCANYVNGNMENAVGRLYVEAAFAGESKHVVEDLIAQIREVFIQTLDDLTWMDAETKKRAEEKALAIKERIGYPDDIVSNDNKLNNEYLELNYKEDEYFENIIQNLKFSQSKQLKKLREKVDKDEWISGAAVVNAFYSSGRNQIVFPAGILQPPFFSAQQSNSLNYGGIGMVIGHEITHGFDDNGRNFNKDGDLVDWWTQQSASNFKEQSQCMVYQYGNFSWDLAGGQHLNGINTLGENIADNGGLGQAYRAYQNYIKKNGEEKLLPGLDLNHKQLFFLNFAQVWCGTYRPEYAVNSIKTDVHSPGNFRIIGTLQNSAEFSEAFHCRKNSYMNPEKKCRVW

## CC(C)C[C@H](NP(=O)(O)O[C@@H]1O[C@@H](C)[C@H](O)[C@@H](O)[C@H]1O)C(=O)N[C@@H](Cc1c[nH]c2ccccc12)C(=O)O [Phosphoramidon]
  IC50: 1.99 nM
